Here are results for one compound from patent US6153589A, “2,3-epoxy alcohols, acids and derivatives as anti retroviral chemotherapeutic agents” (The United States of America as represented by the …, priority 1992, dated 2000).

One series concerns HIV-2 protease. The series can be described thus: HIV protease cleavage of nonapeptide (HPLC). Type of series: biochemical. As to conditions: 0.5 μl of 10 μg/μl inhibitor in DMSO per 10 μl reaction; pH 6.5, room temperature; pentapeptide product relative to DMSO control; sampled at ca. 16 and 40 hr (time not given). Put shortly:
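Nonapeptide substrate Val-Ser-Gln-Asn-Tyr-Pro-Ile-Val-Gln-NH2 incubated with protease (ca. 100 ng) in 200 mM sodium phosphate, 1 M NaCl, 5% glycerol, 0.25% NP-40, pH 6.5, at room temperature with inhibitor added from a 10 μg/μl DMSO stock. Samples taken at ca. 16 and 40 h; RP-HPLC (206 nm) measured pentapeptide product relative to DMSO control.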

The subject of a further series is Rous Sarcoma Virus. As to conditions: in vitro; literature report; cited from earlier work.
The subject of the next series is fatty acid synthesis. As to conditions: literature report; cited from earlier work.
The next series concerns the target T1, porcine Renin (Sus scrofa, UniProt A0A287APG1).
T1 construct: purchased Sigma
As to the kind of experiment: Porcine Renin cleavage of porcine tetradecapeptide (HPLC). In kind it is biochemical. As to conditions: 0.5 μl of 50 μg/μl inhibitor in DMSO in 50 μl; pH 6.00, room temperature, 70 min; relative to uninhibited control. The source says:
Renin Activity: Porcine Renin Cleavage of Porcine Tetradecapeptide
Proteolytic enzymes are ubiquitous in many living systems. Renin is an asparxyl protease found in mammals which is responsible for the regulation of blood pressure. Structural and functional similarities between Renin and retroviral proteases have been previously noted (Pearl, L. H., Taylor, W. R., (1987) Nature, 329, 351-354). Consequently, successful therapeutic inhibition of retroviral proteases depends on the ability of the inhibitor to inhibit the retroviral enzyme while having a greatly diminished effect on normally occurring enzymes like Renin. The failure to inhibit the desired enzyme selectively may have an adverse effect on normal biochemical functions. The similarity of Renin to retroviral proteases and its viral normal bodily function makes it an attractive system in which to examine inhibitory selectivity.
Renin activity was determined by a method similar to that described above for the HIV protease. A solution containing 0.37 m unit (0.5 μl of stock solution containing 0.75 m unit/μl) of porcine Renin (Sigma) was added to 5 μg of porcine angiotensinogen in 50 μl of 0.1 M citrate-phosphate buffer (pH 6.00) containing 0.25% NP-40. A DMSO solution containing the inhibitor (0.5 μl of a 50 μg/μl solution) was added and the reaction was allowed to incubate at room temperature for 70 min. The entire mixture was analyzed by HPLC chromatographic analysis was perforemd on a 4.6×250 mm Lichrosorb RP-18 column eluting with a gradient of 0-50% acetonitrile in 0.02 M KH2 Po4 (pH 4.7) over 30 min monitoring absorbance at 206 nm. Appearance of both the tetrapeptide and the decapeptide products may be monitored under these conditions. Enzyme activity is expressed as the amount of tetrapeptide produced relative to an uninhibited control, and are summarized in Table 3 below.

The conditions of series [1]: literature report; cited from earlier work.
Another series deals with HIV infected cells. As to conditions: literature report; cited from earlier work.
Another series deals with Murine Leukemia Virus. As to conditions: in vitro; literature report; cited from earlier work.

SMILES strings stand for the structures.

T1 sequence (A0A287APG1 24-407): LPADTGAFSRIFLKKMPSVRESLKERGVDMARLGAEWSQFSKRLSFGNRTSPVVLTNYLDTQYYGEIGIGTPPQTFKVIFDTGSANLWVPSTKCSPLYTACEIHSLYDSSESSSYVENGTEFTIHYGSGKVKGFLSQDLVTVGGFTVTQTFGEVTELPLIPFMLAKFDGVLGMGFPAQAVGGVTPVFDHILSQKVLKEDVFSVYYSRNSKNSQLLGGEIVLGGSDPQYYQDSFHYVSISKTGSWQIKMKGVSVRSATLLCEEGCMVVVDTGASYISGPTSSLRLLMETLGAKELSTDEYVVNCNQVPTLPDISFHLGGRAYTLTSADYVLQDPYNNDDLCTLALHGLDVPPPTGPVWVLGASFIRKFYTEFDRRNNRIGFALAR

In the case of `C/C=C/C/C=C/CCC(=O)[C@H]1O[C@H]1C(N)=O` [Cerulenin, 4-Oxo-2R,3S-epoxy-trans,trans-2,5-dodecadienyl amide], the “Percent Control Cleavage of Nonapeptide HIV-1 Cleavage Site Fragment” value in the series on HIV-2 protease amounted to 10%. The “antiretroviral activity against Rous Sarcoma Virus” value in the series on Rous Sarcoma Virus is recorded as “exhibit antiretroviral activity”. The “inhibition of fatty acid synthesis” value in the series with fatty acid synthesis was “potent inhibitor of fatty acid synthesis”. Besides, at porcine Renin, the “Percent control (tetrapeptide produced)” value came to 68%. The toxicity entry in series [1] is “relatively high toxicity”. For the same compound, the “inhibition of viral polyprotein processing” value with HIV infected cells is “inhibit viral polyprotein processing”. For the same compound, in the series on Murine Leukemia Virus, the “antiretroviral activity against Murine Leukemia Virus” value was “exhibit antiretroviral activity”.
